The values that follow come from US10080741B2, “Isoxazole derivatives as FXR agonists and methods of use thereof” (Enanta Pharmaceuticals, Inc., priority 2016, dated 2018).

The assay deals with T1, human FXR (NR1H4) (Homo sapiens, UniProt Q96RI1).
T1 construct: host or cells: CHO (Chinese hamster ovary) reporter cells
T1 sequence (Q96RI1 1-486): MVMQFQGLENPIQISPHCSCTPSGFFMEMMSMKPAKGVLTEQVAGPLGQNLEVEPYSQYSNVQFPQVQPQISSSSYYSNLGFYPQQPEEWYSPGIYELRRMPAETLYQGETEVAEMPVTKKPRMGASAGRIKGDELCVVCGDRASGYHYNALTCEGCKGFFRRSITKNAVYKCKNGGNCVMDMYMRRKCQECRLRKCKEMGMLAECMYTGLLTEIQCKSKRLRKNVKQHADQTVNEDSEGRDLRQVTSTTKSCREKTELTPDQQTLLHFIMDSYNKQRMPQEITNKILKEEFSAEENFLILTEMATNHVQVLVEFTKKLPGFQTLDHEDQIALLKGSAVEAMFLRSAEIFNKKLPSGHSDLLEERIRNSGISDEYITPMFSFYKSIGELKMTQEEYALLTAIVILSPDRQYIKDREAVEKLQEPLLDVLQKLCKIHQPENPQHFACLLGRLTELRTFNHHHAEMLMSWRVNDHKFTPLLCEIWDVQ
As to the kind of experiment: Human FXR (NR1H4) Assay, luciferase reporter in CHO cells (Indigo Bioscience kit IB00601). In kind it is cell-based. Conditions: for EC50: CHO cells expressing human NR1H4, 22 hours incubation, potency ranges; for Efficacy (%): efficacy normalized to CDCA set as 100%. The text has this: Human FXR (NR1H4) Assay Determination of a ligand mediated Gal4 promoter driven transactivation to quantify ligand binding mediated activation of FXR. FXR Reporter Assay kit purchased from Indigo Bioscience (Catalogue number: IB00601) to determine the potency and efficacy of compound developed by Enanta that can induce FXR activation. The principle application of this reporter assay system is to quantify functional activity of human FXR. The assay utilizes non-human mammalian cells, CHO (Chinese hamster ovary) cells engineered to express human NR1H4 protein (referred to as FXR). Reporter cells also incorporate the cDNA encoding beetle luciferase which catalyzes the substrates and yields photon emission. Luminescence intensity of the reaction is quantified using a plate-reading luminometer, Envision. Reporter Cells include the luciferase reporter gene functionally linked to an FXR responsive promoter. Thus, quantifying changes in luciferase expression in the treated reporter cells provides a sensitive surrogate measure of the changes in FXR activity. […] The assay is according to the manufacturer's instructions. […] Retrieve Reporter Cells from −80° C. storage. Perform a rapid thaw of the frozen cells by transferring a 10 ml volume of 37° C. cell recovery medium into the tube of frozen cells. Recap the tube of Reporter Cells and immediately place it in a 37° C. water bath for 5-10 minutes. Retrieve the tube of Reporter Cell Suspension from the water bath. Sanitize the outside surface of the tube with a 70% alcohol swab, and then transfer it into the cell culture hood. Dispense 90 μl of cell suspension into each well of the 96-well Assay Plate. Transfer the plate into 37° C. incubator, allowing the cells adherent to the bottom of the well. Dilute compounds in Dilution Plate (DP), and administrate to cells at Assay Plate (AP). DMSO content of the samples was kept at 0.2%. Cells were incubated for additional 22 hours before luciferase activities were measured. Thirty minutes before intending to quantify FXR activity, remove Detection Substrate and Detection Buffer from the refrigerator and place them in a low-light area so that they may equilibrate to room temperature. Remove the plate's lid and discard all media contents by ejecting it into an appropriate waste container. Gently tap the inverted plate onto a clean absorbent paper towel to remove residual droplets. Cells will remain tightly adhered to well bottoms. Add 100 μl of luciferase detection reagent to each well of the assay plate. Allow the assay plate to rest at room temperature for at least 5 minutes following the addition of LDR. Set the instrument (Envision) to perform a single 5 second “plate shake” prior to reading the first assay well. Read time may be 0.5 second (500 mSec) per well.

With `CC(C)c1onc(-c2c(Cl)cccc2Cl)c1COc1ccc2cc(-c3cccc(C(=O)NS(=O)(=O)N(C)C)c3)sc2c1` [Example 318], the EC50 was in the range of 100 to 1000 nM and the “Efficacy (%)” value is recorded as 116%.

As for `CC(C)c1onc(-c2c(Cl)cccc2Cl)c1COc1ccc2cc(-c3cccc(C(=O)NS(=O)(=O)C4CC4)c3)sc2c1` [Example 303], the EC50 was 100 to 1000 nM and the “Efficacy (%)” value is reported as 190%.

For the molecule `CC(C)c1onc(-c2c(Cl)cccc2Cl)c1COc1ccc2cc(-c3cccc(C(=O)O)c3)sc2c1` [Compound (1), reference compound], the EC50 was 100 to 1000 nM and the “Efficacy (%)” value came to 220%.

In the case of `CC(C)c1onc(-c2c(Cl)cccc2Cl)c1COc1ccc2cc(-c3cccc(C(=O)NS(=O)(=O)c4ccc(C(C)(C)C)cc4)c3)sc2c1` [Example 312], the EC50 is 1000 to 10000 nM and the “Efficacy (%)” value was determined as 132%.

By EC50 is commonly meant the concentration giving half of the maximal effect. High values mean weaker potency, low ones greater potency.
